Measured values published in patent US8785488B2 (Exelixis Patent Company LLC, priority 2009, dated 2014).

Assays:
human TGR5 (h-TGR5) = biological target: T1, human TGR5 (h-TGR5) (Homo sapiens, UniProt Q8TDU6); test: TGR5/CRE-Luciferiase Assay (HEK 293 hTGR5/CRE-Luc cells); assay type: cell-based; settings: h-TGR5 CRE-Luc EC50, Table 1; read-out: CRE-Luc (EC50)
T1 construct: expressed in transfected cells
T1 sequence (Q8TDU6 1-330): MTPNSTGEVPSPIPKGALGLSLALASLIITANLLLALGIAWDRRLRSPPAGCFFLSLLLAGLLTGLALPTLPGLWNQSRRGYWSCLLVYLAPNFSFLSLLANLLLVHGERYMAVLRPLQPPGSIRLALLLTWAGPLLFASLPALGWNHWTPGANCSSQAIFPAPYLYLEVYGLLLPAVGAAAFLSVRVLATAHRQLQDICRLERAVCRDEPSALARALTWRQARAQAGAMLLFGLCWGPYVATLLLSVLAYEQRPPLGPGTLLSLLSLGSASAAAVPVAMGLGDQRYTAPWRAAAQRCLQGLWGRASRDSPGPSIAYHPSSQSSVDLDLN
Procedure, shortened: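 HEK293 cells stably carrying hTGR5 and a CRE-luciferase reporter were exposed to serially diluted compounds (diluted in DMEM with 5% DMSO) for 6 h. Cells were then lysed in luciferase buffer, luminescence was read, and EC50 values were derived from dose-response curves.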

h-TGR5 = biological target: T2, h-TGR5 (Homo sapiens, UniProt Q8TDU6); test: TGR5 cAMP Assay using Cisbio cAMP Dynamic2 htrf kit (hTGR5CRE-luc HEK 293 cells); assay type: cell-based; settings: h-TGR5 cAMP EC50, Table 1; read-out: cAMP (EC50)
T2 construct: expressed in transfected cells
T2 sequence (Q8TDU6 1-330): T1 sequence (Q8TDU6 1-330)
Procedure, shortened: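 […], 4000 hTGR5CRE-luc HEK 293 cells per well, with 0.5 mM IBMX and d2-cAMP, were incubated 30 min at room temperature with compounds in 8-point half-log series, in quadruplicate.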

Row | EC50 (human TGR5 (h-TGR5)) | EC50 (h-TGR5) | SMILES
1 | 100 to 1000 nM | 100 to 1000 nM | CC(C)NC(=O)NS(=O)(=O)c1ccc(CSc2ncc(C(C)(C)c3ccc(F)c(F)c3)n2-c2ccc(F)cc2)c(Cl)c1 [3-chloro-4-[({5-[1-(3,4-difluorophenyl)-1-methylethyl]-1-(4-fluorophenyl)-1H-imidazol-2-yl}thio)methyl]-N-{[(1-methylethyl)amino]carbonyl}benzenesulfonamide]
2 | 100 to 1000 nM | 100 to 1000 nM | CC(C)(c1ccc(Cl)c(Cl)c1)c1cnc(COc2c(F)cc(C(=O)O)cc2Cl)n1-c1ccc(F)cc1
3 | < 100 nM | < 100 nM | COc1cc(C(C)(C)c2cnc(SCc3ccc(F)c(S(N)(=O)=O)c3)n2-c2ccc(F)cc2)ccc1Cl [5-({[5-{1-[4-chloro-3-(methyloxy)phenyl]-1-methylethyl}-1-(4-fluorophenyl)-1H-imidazol-2-yl]thio}methyl)-2-fluorobenzenesulfonamide]
4 | 100 to 1000 nM | 100 to 1000 nM | CC(C)(c1ccc(Cl)c(Cl)c1)c1cnc(SCc2ccc(C(=O)O)cc2Cl)n1-c1ccc(F)cc1 [3-chloro-4-[({5-[1-(3,4-dichlorophenyl)-1-methylethyl]-1-(4-fluorophenyl)-1H-imidazol-2-yl}thio)methyl]benzoic acid]
5 | < 100 nM | < 100 nM | COc1ccc(C(C)(C)c2cnc(SCc3ccc(F)c(C(N)=O)c3)n2-c2ccc(F)cc2)cc1OC [5-({[5-{1-[3,4-bis(methyloxy)phenyl]-1-methylethyl}-1-(4-fluorophenyl)-1H-imidazol-2-yl]thio}methyl)-2-fluorobenzamide]
6 | < 100 nM | < 100 nM | COc1ccc(C(C)(C)c2cnc(CN(C)c3c(F)cccc3Cl)n2-c2ccc(F)cc2)cc1OC [N-{[5-{1-[3,4-bis(methyloxy)phenyl]-1-methylethyl}-1-(4-fluorophenyl)-1H-imidazol-2-yl]methyl}-2-chloro-6-fluoro-N-methylaniline]
7 | < 100 nM | 100 to 1000 nM | COc1cc(C(C)(C)c2cnc(SCc3ccc(S(=O)(=O)NC(=O)NN4CCCC4)cc3F)n2-c2ccc(F)cc2)ccc1Cl [4-({[5-{1-[4-chloro-3-(methyloxy)phenyl]-1-methylethyl}-1-(4-fluorophenyl)-1H-imidazol-2-yl]thio}methyl)-3-fluoro-N-[(pyrrolidin-1-ylamino)carbonyl]benzenesulfonamide]
8 | 1000 to 10000 nM | 1000 to 10000 nM | CC(C)(c1ccc(Cl)c(Cl)c1)c1cnc(SCC2CCCN(c3nnn[nH]3)C2)n1-c1ccc(F)cc1 (stereo not shown) [3-[({5-[1-(3,4-dichlorophenyl)-1-methylethyl]-1-(4-fluorophenyl)-1H-imidazol-2-yl}thio)methyl]-1-(1H-tetrazol-5-yl)piperidine]
9 | 100 to 1000 nM | 100 to 1000 nM | CC(C)(c1ccc(Cl)c(Cl)c1)c1cnc(SCc2ccc(S(N)(=O)=O)cc2F)n1-c1ccc(F)cc1 [4-[({5-[1-(3,4-dichlorophenyl)-1-methylethyl]-1-(4-fluorophenyl)-1H-imidazol-2-yl}thio)methyl]-3-fluorobenzenesulfonamide]
10 | < 100 nM | 100 to 1000 nM | COc1cc(-n2c(C(C)(C)c3ccc(Cl)c(Cl)c3)cnc2SCC2CCN(C(=O)NC(C)C)CC2)ccc1F [4-[({5-[1-(3,4-dichlorophenyl)-1-methylethyl]-1-[4-fluoro-3-(methyloxy)phenyl]-1H-imidazol-2-yl}thio)methyl]-N-(1-methylethyl)piperidine-1-carboxamide]
11 | 100 to 1000 nM | 1000 to 10000 nM | CC(C)(c1ccc(Cl)c(Cl)c1)c1cnc(SCc2ccc(S(=O)(=O)NC(=O)NN3CCCC3)cc2Cl)n1-c1ncc(F)cc1F [3-chloro-4-[({5-[1-(3,4-dichlorophenyl)-1-methylethyl]-1-(3,5-difluoropyridin-2-yl)-1H-imidazol-2-yl}thio)methyl]-N-[(pyrrolidin-1-ylamino)carbonyl]benzenesulfonamide]
